The results in this text go back to US20100137344A1, “INDUCTION OF ANALGESIA IN NEUROPATHIC PAIN” (University Court of the University of Edinburgh, priority 2006, published 2010).

Molecules are shown by their SMILES.

Experiment [1] has as its system rats sensitised by the TRPA1 activator cinnamaldehyde. In words: Cinnamaldehyde-induced sensitisation and its reversal by icilin (PWL, PWT). It is filed as in vivo, rat. The note with it: for Mean % reversal of mechanical sensitisation (after 15-30 mins) / Mean % reversal of thermal sensitisation (after 15-30 mins) / PWL (s) difference from control (+ icilin) / PWT (mN/mm^2) difference from control (+ icilin): icilin 10 nmol, i.t. The protocol: (§1) Thermal sensitivity was assessed by measuring paw withdrawal latency (PWL, s) in response to a noxious thermal stimulus (Hargreaves' thermal stimulator, Linton Instrumentation, Diss, UK) directed to the hindpaw mid-plantar glabrous surface. Mechanical sensitivity was recorded as the paw withdrawal threshold (PWT, mN/mm^2) to calibrated von Frey filaments (Stoelting, Ill., US), as previously described^[39]. Sensitivity to noxious cold was assessed by placing animals in a waterbath with an aluminium floor containing 1 cm deep 4° C. water and counting the time the paw was held suspended over a 20 s period.
The following drugs were applied intrathecally in a 50 μl volume of saline-based vehicle at 37° C.: icilin (2.5-200 μM in saline with 0.2% dimethylformamide, DMF), LY 341495 (100 μM in saline), UBP 1112 (200 μM in saline), 2R,4R-APDC ((2R, 4R)-4-aminopyrrolidine-2,4-dicarboxylate), 300 μM in saline), ACPT-III ((1R,3R,4S)-1-aminocyclopentane-1,3,4-tricarboxylic acid), 3 mM in saline), AP-4, ((L-(1)-2-amino-4-phosphonobutyric acid), 3 mM in saline), naloxone (0.5 mM in saline), NMDA (75 μM in saline) and ACPC (1-aminocyclopropanecarboxylic acid, 15 μM in saline) (Tocris Cookson, Bristol, UK), (−)-menthol (1R,2S,5R-(−)-menthol, 4 mM in saline), cinnamaldehyde (1.5 mM in saline) and Ruthenium Red (5 μM in saline) (Sigma-Aldrich Co. Ltd, UK) and allicin (0.5 mM in saline with 0.5% DMF) and diallyl disulphide (DADS, 1 mM in saline with 0.5% DMF) (LKT Laboratories Inc., St Paul, Minn., USA). Drugs were injected into the L5/6 intrathecal space under brief halothane anaesthesia, using a 25-gauge needle microsyringe (BD Biosciences, Oxford, UK), as described previously^[39] in animals that were at peak levels of behavioural sensitisation. Behavioural reflex testing commenced 15 min following injection to allow recovery from anaesthesia^[40,41,42] and continued every 5 min thereafter until readings returned to baseline levels (n=6 in each case). We, and others^[40,41,42] find complete recovery from anaesthetic by 15 minutes. All appropriate controls were carried out to eliminate the possibility of effects due to vehicle or to injection procedure.
The TRPM8 channel activators, icilin and (−)-menthol were tested in CCI and naïve animals. The effects of icilin were additionally assessed in animals with CFA-induced inflammation or with lysolecithin-induced demyelination. Icilin was also co-administered with the μ-opioid receptor antagonist naloxone, the Group II metabotropic glutamate receptor (mGluR) antagonist, LY 341495, or the Group III mGluR antagonist, UBP 1112. The effects of these antagonists alone as well as effects of the Group II mGluR agonist, 2R,4R-APDC and the Group III mGluR agonists, ACPT-III and AP-4, were assessed in CCI animals. The TRPA1 channel activator, cinnamaldehyde, alone and with icilin, was tested in CCI animals and in naïve animals. Further TRPA1 channel activators, allicin and diallyl disulphide were assessed in naïve animals. Both icilin and cinnamaldehyde effects in CCI animals were also investigated in the additional presence of Ruthenium Red.
Icilin was applied at concentrations of 2.5-500 μM (in water with 0.2% DMF), by placing CCI or naïve rats unrestrained for 5 min in a 1 cm deep waterbath (sufficient to cover paws), which was thermostatically controlled to a temperature of 30° C., or by very lightly anaesthetising rats and immersing hindpaws in small tubes containing 5 ml icilin (500 μM-5 mM, with a vehicle of 45% dimethylformamide in 0.2% aqueous Tween 80) for 5 min, followed by sensory testing for 60-80 mins. The effects of (−)-menthol and its stereoisomers isomenthol (1S,2R,5R-menthol,) and (+)-menthol (1S,2R,5S(+)-menthol) (4-16 mM in 80% ethanol) were also assessed. Relevant vehicles were always assessed in similar experiments. As a contrast, the effect of cinnamaldehyde (1.5 mM in water) and the effect of cinnamaldehyde with additional icilin (80 μM in water with 0.2% DMF) were assessed in naïve animals. […]

For a further experiment, the system named is naïve rats. In words: Topical application to paws of naïve rats, behavioural reflex testing (PWL, PWT). It is filed as in vivo, rat. The note with it: Naïve. As for the experimental part: as §1
Icilin was applied at concentrations of 2.5-500 μM (in water with 0.2% DMF), by placing CCI or naïve rats unrestrained for 5 min in a 1 cm deep waterbath (sufficient to cover paws), which was thermostatically controlled to a temperature of 30° C., or by very lightly anaesthetising rats and immersing hindpaws in small tubes containing 5 ml icilin (500 μM-5 mM, with a vehicle of 45% dimethylformamide in 0.2% aqueous Tween 80) for 5 min, followed by sensory testing for 60-80 mins. The effects of (−)-menthol and its stereoisomers isomenthol (1S,2R,5R-menthol,) and (+)-menthol (1S,2R,5S(+)-menthol) (4-16 mM in 80% ethanol) were also assessed. Relevant vehicles were always assessed in similar experiments. As a contrast, the effect of cinnamaldehyde (1.5 mM in water) and the effect of cinnamaldehyde with additional icilin (80 μM in water with 0.2% DMF) were assessed in naïve animals. The effects of icilin (80 μM) were further assessed in CCI animals that had undergone antisense and mis-sense treatment for knockdown of TRPM8 or immediately following intrathecal injection of either LY 341495 or UBP 1112. […] The effects of brief paw immersion at different temperatures (10-22° C. for 5 min) on CCI rats were assessed by mechanical testing. The effects of intrathecal LY 341495 or UBP 1112 on the reversal of ipsilateral sensitisation in CCI following a 16° C. cool challenge for 5 min were measured. Reflex testing commenced 5 minutes following challenge, unless animals had been anaesthetised, in which case 15 minutes was allowed for recovery. Six replicate animals were tested in all pharmacological experiments.

The mark [2] stands for this setting: icilin 1000 μM applied to paw, 15 mins.
[3] abbreviates: icilin 1000 μM applied to paw, 50 mins.
Setting [4] is: icilin 2500 μM applied to paw, 15 mins.
Setting [5] is: icilin 2500 μM applied to paw, 50 mins.
The mark [6] stands for this setting: icilin 5000 μM applied to paw, 15 mins.
Setting [7] is: icilin 5000 μM applied to paw, 50 mins.

Regarding `O=C1NC(c2cccc([N+](=O)[O-])c2)=CCN1c1ccccc1O` [icilin, 1-(2′-hydroxyphenyl)-4-(3″-nitrophenyl)-1,2,3,6-tetrahydropyrimidin-2-one], the figures for the “Mean % reversal of mechanical sensitisation (after 15-30 mins)” value in experiment [1] (Cinnamaldehyde (intrathecal)) and in experiment [1] (Cinnamaldehyde (topical)) were 92.6 ± 2.8% and 100.0 ± 0.0%, respectively. The “Mean % reversal of thermal sensitisation (after 15-30 mins)” value in experiment [1] (Cinnamaldehyde (intrathecal)) is given as 91.5 ± 4.1%; in experiment [1] (Cinnamaldehyde (topical)), 92.0 ± 6.1%. The results for the “PWL (s) difference from control (+ icilin)” value in experiment [1] (Cinnamaldehyde (intrathecal)) and in experiment [1] (Cinnamaldehyde (topical)) were 0.5 ± 1.8 s and 0.4 ± 1.6 s, respectively. Further, the “PWT (mN/mm^2) difference from control (+ icilin)” value in experiment [1] (Cinnamaldehyde (intrathecal)) is given as 150.3 ± 125.2 mN/mm^2; in experiment [1] (Cinnamaldehyde (topical)), 0.0 ± 0.0 mN/mm^2. Further, in experiment [1] (topical icilin 200 μM, data not shown), the “effect on sensitisation by topical cinnamaldehyde” value was “reversed”. Moreover, the “Mechanical PWT” value with naïve rats (setting [2]) was 4830.6 ± 0.0 mN/mm^2; in the experiment on naïve rats (setting [3]), 4830.6 ± 0.0 mN/mm^2; in the experiment with naïve rats (setting [4]), 4830.6 ± 0.0 mN/mm^2; in the experiment on naïve rats (setting [5]), 4830.6 ± 0.0 mN/mm^2; with naïve rats (setting [6]), 3828.6 ± 316.8 mN/mm^2; with naïve rats (setting [7]) it was 4830.6 ± 0.0 mN/mm^2. The “Thermal PWL” value was 15.1 ± 1.2 s in the experiment with naïve rats (setting [2]); 14.8 ± 0.9 s in the experiment on naïve rats (setting [3]); 14.9 ± 0.3 s in the experiment on naïve rats (setting [4]); 13.2 ± 0.8 s in the experiment with naïve rats (setting [5]); 15.3 ± 0.5 s with naïve rats (setting [6]); 13.1 ± 0.7 s in the experiment with naïve rats (setting [7]).
